Experimental data reported in patent US20040171073A1, “Compounds for modulation of cholesterol transport” (Massachusetts Institute of Technology, priority 2002, published 2004).

Molecular target: T1, murine SR-BI (Mus musculus, UniProt Q61009)
T1 construct: expressed in transfected cells; host or cells: ldlA-7 (LDL receptor deficient Chinese hamster ovary cells)
T1 sequence (Q61009 1-509): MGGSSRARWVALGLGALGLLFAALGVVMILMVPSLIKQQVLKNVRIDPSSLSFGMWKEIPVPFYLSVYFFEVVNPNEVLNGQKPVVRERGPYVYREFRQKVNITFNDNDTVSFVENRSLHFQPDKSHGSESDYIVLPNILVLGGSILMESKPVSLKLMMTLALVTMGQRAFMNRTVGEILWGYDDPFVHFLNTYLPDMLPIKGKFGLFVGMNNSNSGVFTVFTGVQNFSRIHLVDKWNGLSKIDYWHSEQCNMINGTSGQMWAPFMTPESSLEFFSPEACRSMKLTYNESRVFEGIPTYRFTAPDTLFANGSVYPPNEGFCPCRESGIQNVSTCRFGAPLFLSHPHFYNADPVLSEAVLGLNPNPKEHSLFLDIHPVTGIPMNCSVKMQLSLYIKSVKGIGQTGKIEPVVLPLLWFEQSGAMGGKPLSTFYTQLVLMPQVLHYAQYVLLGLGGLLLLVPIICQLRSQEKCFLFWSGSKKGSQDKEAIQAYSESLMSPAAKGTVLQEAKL
Experiment: Uptake of DiI from DiI-HDL by ldlA[mSR-BI] cells (high throughput screen and concentration dependence)
Assay type: cell-based

| ENDOHDL Test 1 | ENDOHDL Test 2 | Compound |
| --- | --- | --- |
| 0.6 | 0.62 | CCOCc1c(C)cc(C)c(/C=N/Nc2ccc([N+](=O)[O-])cc2)c1C [MIT 9952-174] |
| 0.42 | 0.51 | NC(=S)Nc1ccc2c(c1)Nc1ccccc1CC2 [MIT 9952-175] |
| 1.36 | 1.17 | Clc1ccc(/N=C/c2ccc3c(c2)OCO3)nc1 [MIT 9952-176] |
| 0.4 | 0.38 | CCN(CC)CC(=O)Nc1ccc2c(c1)N(C(=O)c1ccccc1)c1ccccc1CC2.Cl [MIT 9952-178] |
| 0.43 | 0.45 | COC(=O)Cn1c2c(c3cc(C)ccc31)CCCC2NC(C)c1ccccc1 (stereo not drawn) [MIT 9952-180] |
| 0.6 | 0.54 | C/C(CS(=O)(=O)c1ccc(C)cc1)=N/NC(N)=S [MIT 9952-181] |
| 0.6 | 0.58 | O=C1Nc2ccc([N+](=O)[O-])cc2/C1=N/NC(=O)C1C2CCCCC21 (stereo not drawn) [MIT 9952-184] |
| 0.33 | 0.46 | CCOC(=O)c1c(/N=C/c2ccccc2[N+](=O)[O-])sc2c1CCCC2 [MIT 9952-187] |
| 1.27 | 1.98 | C#CCOC(=O)CCCC(=O)Nc1ccccc1[N+](=O)[O-] [MIT 9952-191] |
| 0.57 | 0.52 | CCN(CC)S(=O)(=O)c1cc(C(=O)Nc2ccc(Br)cc2)ccc1Br [MIT 9952-192] |
| 0.76 | 0.46 | Cc1cccc(C(=O)N/N=C/c2ccccc2Cl)c1 [MIT 9952-194] |
| 0.63 | 0.6 | CCCCC1(OC(=O)Nc2ccc(Cl)cc2)CCCCC1 [MIT 9952-196] |
| 0.67 | 0.64 | CO/C(=N\C(NC(=S)Nc1ccc(Br)cc1)C(Cl)(Cl)Cl)c1ccc(C)cc1 (stereo not drawn) [MIT 9952-198] |
| 0.69 | 0.67 | Cc1ccc(NC(=S)NC(NC(=O)c2ccccc2Cl)C(Cl)(Cl)Cl)cc1 (stereo not drawn) [MIT 9952-201] |
| 1.08 | 1.0 | COc1ccc2[nH]cc(CCN3CCOC3=O)c2c1 [MIT 9952-205] |
| 0.46 | 0.59 | O=[N+]([O-])c1cccc(/C=N\Nc2nc(Nc3ccc(Cl)cc3)nc(N3CCOCC3)n2)c1 [MIT 9952-209] |
| 1.13 | 1.25 | CCS(=O)(=O)C(=C(Nc1ccc(OC)cc1)Nc1ccc(OC)cc1)S(=O)(=O)CC [MIT 9952-220] |
| 0.62 | 0.59 | Nc1c(C(=O)c2ccc(Br)cc2)sc2nc(-c3ccccc3)c3c(c12)CCCC3 [MIT 9952-221] |
| 0.64 | 0.57 | CCOC(=O)c1c(NC(=O)c2ccccc2C)sc2c1CCCC2 [MIT 9952-223] |
| 0.6 | 0.5 | Cc1ccc(NC(=O)c2ccc([N+](=O)[O-])c(C)c2)cc1Cl [MIT 9952-224] |
| 0.56 | 0.59 | C/C(CCS(=O)(=O)c1ccc(C)cc1)=N\NC(N)=S [MIT 9952-225] |
| 0.46 | 0.54 | O=C(Nc1cc(Sc2nc3ccccc3s2)cc([N+](=O)[O-])c1)c1ccc(F)c(F)c1 [MIT 9952-231] |
| 0.61 | 0.56 | O=C(Nc1nc(-c2ccccc2)cs1)Nc1ccc(Cl)cc1Cl [MIT 9952-232] |

Further lines, the compound ahead of its results:

| Compound | ENDOHDL Test 1 | ENDOHDL Test 2 |
| --- | --- | --- |
| Nc1nc(N)nc(-c2cccc(-c3nc(N)nc(N)n3)c2)n1 [MIT 9952-173] | 1.96 | 1.61 |
| CCc1c2cccn2cc(C)[n+]1C.[I-] [MIT 9952-177] | 0.68 | 0.49 |
| C=CCN1C(=O)[C@H]2Cc3c([nH]c4ccccc34)[C@@H](c3ccc4c(c3)OCO4)N2C1=S [MIT 9952-179] | 0.54 | 0.54 |
| COc1ccc(NC(=O)Oc2cc(C(C)(C)C)cc(C(C)(C)C)c2)cc1Cl [MIT 9952-182] | 0.71 | 0.41 |
| Cc1[nH]c2ccccc2c1-c1c2ccccc2nc2ccccc12 [MIT 9952-183] | 0.59 | 0.65 |
| CCCCCCC1CCC/C1=N\NC(N)=S (stereo not drawn) [MIT 9952-185] | 0.53 | 0.46 |
| O=C(CNS(=O)(=O)c1ccc([N+](=O)[O-])cc1)N/N=C/c1ccccc1 [MIT 9952-186] | 0.5 | 0.5 |
| O=C(Nc1cc2c(cc1C(=O)c1ccccc1)OCCO2)c1ccc(Br)cc1 [MIT 9952-188] | 0.61 | 0.58 |
| O=C(Nc1cccc(C(F)(F)F)c1)c1cccc(C(=O)Nc2cccc(C(F)(F)F)c2)n1 [MIT 9952-189] | 0.56 | 0.58 |
| O=C(O)c1ccc2c(c1)C(=O)N(c1ccc(C(=O)OCC(=O)c3ccccc3)cc1)C2=O [MIT 9952-190] | 1.47 | 1.35 |
| Cn1cc(C=O)c2cc(Br)ccc21 [MIT 9952-193] | 0.66 | 0.69 |
| O=C(O/N=C/c1ccc([N+](=O)[O-])o1)c1ccccc1 [MIT 9952-195] | 1.22 | 1.35 |
| CN1CCc2c(c3ccccc3n2-c2ccccc2)C1.Cl [MIT 9952-197] | 0.58 | 0.71 |
| O=C(N/N=C\c1cccn1-c1ccc([N+](=O)[O-])cc1)c1ccccc1 [MIT 9952-199] | 0.52 | 0.46 |
| O=[N+]([O-])c1ccc(N/N=C(/CS(=O)(=O)c2ccccc2)c2ccccc2)c([N+](=O)[O-])c1 [MIT 9952-200] | 0.73 | 0.8 |
| O=C(O)C(Cc1ccccc1)N1C(=O)CSC1=S (stereo not drawn) [MIT 9952-202] | 1.23 | 1.11 |
| CO/C(=N\C(NC(=S)Nc1ccccc1)C(Cl)(Cl)Cl)c1ccc(C)cc1 (stereo not drawn) [MIT 9952-203] | 0.73 | 0.7 |
| NS(=O)(=O)c1ccc(N=N/C(=N/Nc2ccc(S(N)(=O)=O)cc2)c2ccccc2)cc1 [MIT 9952-204] | 0.55 | 0.62 |
| COc1cc2c(-c3ccccc3)c(C)oc2cc1/C=N/NC(N)=S [MIT 9952-206] | 0.56 | 0.52 |

| Compound | ENDOHDL Test 1 | ENDOHDL Test 2 |
| --- | --- | --- |
| Cc1ccc(N2SC(NS(=O)(=O)c3ccc(C)cc3)N=C2c2ccccc2)cc1 (stereo not drawn) [MIT 9952-207] | 1.28 | 1.19 |
| Nc1ccc(C(=O)Nc2ccc(-c3nc4ccc(NC(=O)c5ccc(N)cc5)c(Cl)c4[nH]3)cc2Cl)cc1 [MIT 9952-208] | 0.57 | 0.55 |
| Cc1c([N+](=O)[O-])cc(C(=O)Nc2cccc(-c3nc4ccccc4o3)c2)cc1[N+](=O)[O-] [MIT 9952-210] | 0.59 | 0.56 |
| CCn1c2ccccc2c2cc(/C=N/NC(N)=S)ccc21 [MIT 9952-211] | 0.59 | 0.56 |
| COc1ccc2c(c1)c(C(C)=O)c(C)n2-c1ccccc1 [MIT 9952-212] | 0.57 | 0.49 |
| O=C(Nc1cccc(NC(=O)c2ccccc2Cl)c1)c1cccc([N+](=O)[O-])c1 [MIT 9952-213] | 0.66 | 0.57 |
| CC(C)(C)c1ccc(C(=O)Nc2cccc(NC(=O)c3cccc([N+](=O)[O-])c3)c2)cc1 [MIT 9952-214] | 0.63 | 0.35 |
| CCOC(=O)c1c(NC(=O)c2ccccc2)sc(NC(=O)c2ccccc2)c1C(=O)OCC [MIT 9952-215] | 0.57 | 0.53 |
| O=C(NC(NC(=S)Nc1ccc2ccccc2c1)C(Cl)(Cl)Cl)c1cccc([N+](=O)[O-])c1 (stereo not drawn) [MIT 9952-216] | 0.54 | 0.58 |
| O=C(NNC(=O)c1cccc2ccccc12)c1ccc(NC(=O)c2cccc3ccccc23)cc1 [MIT 9952-217] | 0.57 | 0.53 |
| Cc1cc(=O)oc2cc(OCc3ccccc3)c(OCc3ccccc3)cc12 [MIT 9952-218] | 0.64 | 0.33 |
| O=C(Nc1ccc(Cl)c([N+](=O)[O-])c1)c1cccc(C(=O)Nc2ccc(Cl)c([N+](=O)[O-])c2)c1 [MIT 9952-219] | 0.55 | 0.55 |
| COc1ccc(NC(=O)c2cc([N+](=O)[O-])c(C)c([N+](=O)[O-])c2)cc1Cl [MIT 9952-226] | 0.5 | 0.56 |
| C=CCc1c(C)nc(-c2ccccc2)nc1Nc1ccc([N+](=O)[O-])cc1 [MIT 9952-227] | 0.58 | 0.53 |
| Cc1ccsc1/C=N/NC(=O)c1cccc([N+](=O)[O-])c1 [MIT 9952-228] | 0.46 | 0.63 |
| O=C(Nc1ccc2c(c1)S(=O)(=O)c1cc(NC(=O)c3cccc4ccccc34)ccc1-2)c1cccc2ccccc12 [MIT 9952-229] | 0.58 | 0.58 |
| Nc1cc2cccnc2c2ncccc12 [MIT 9952-230] | 0.61 | 0.51 |
| COc1ccc(OC)c(NC(=O)c2cc([N+](=O)[O-])c(C)c([N+](=O)[O-])c2)c1 [MIT 9952-233] | 0.59 | 0.33 |
